Assay results: the supplement of paper PMC10307832

Assays:
Test in all cases: relative viability (nuclei count vs DMSO), 5 days (fraction); higher = more cells survive
VE-821 + Pemetrexed = compound: CS(=O)(=O)c1ccc(-c2cnc(N)c(C(=O)Nc3ccccc3)n2)cc1 [VE-821] + Nc1nc2[nH]cc(CCc3ccc(C(=O)N[C@@H](CCC(=O)O)C(=O)O)cc3)c2c(=O)[nH]1 [Pemetrexed] (partner 0.2 µM)
In short: (§1)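 The day after seeding in 1536-well plates, lung cancer cell lines were treated by pin tool with a single drug, or with a fixed anchor-drug dose together with five library-drug doses (not always all listed) in √10 steps. After 5 days, a combined fix-and-stain solution (final 0.05% Triton X-100, 1% formaldehyde, 1 ug/ml Hoechst) was added. Nuclei counted on 4× images gave relative viability as treated counts over vehicle counts, reported as the median of duplicate plates.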

Vismodegib + AZD7762 = compound: CS(=O)(=O)c1ccc(C(=O)Nc2ccc(Cl)c(-c3ccccn3)c2)c(Cl)c1 [Vismodegib] + NC(=O)Nc1cc(-c2cccc(F)c2)sc1C(=O)N[C@H]1CCCNC1 [AZD7762] (partner 0.2 µM)
In short: as §1

Ruxolitinib + Foretinib = compound: N#CC[C@H](C1CCCC1)n1cc(-c2ncnc3[nH]ccc23)cn1 [Ruxolitinib] + COc1cc2c(Oc3ccc(NC(=O)C4(C(=O)Nc5ccc(F)cc5)CC4)cc3F)ccnc2cc1OCCCN1CCOCC1 [Foretinib] (partner 0.25 µM)
In short: as §1

Ruxolitinib + Dasatinib = compound: N#CC[C@H](C1CCCC1)n1cc(-c2ncnc3[nH]ccc23)cn1 [Ruxolitinib] + Cc1nc(Nc2ncc(C(=O)Nc3c(C)cccc3Cl)s2)cc(N2CCN(CCO)CC2)n1 [Dasatinib] (partner 0.075 µM)
In short: as §1

Row | Cell Line | relative viability (VE-821 + Pemetrexed; first compound 0.08 µM) | relative viability (VE-821 + Pemetrexed; first compound 0.253 µM) | relative viability (VE-821 + Pemetrexed; first compound 0.8 µM) | relative viability (VE-821 + Pemetrexed; first compound 2.53 µM) | relative viability (VE-821 + Pemetrexed; first compound 8 µM) | relative viability (Vismodegib + AZD7762; first compound 0.08 µM) | relative viability (Vismodegib + AZD7762; first compound 0.253 µM) | relative viability (Vismodegib + AZD7762; first compound 0.8 µM) | relative viability (Vismodegib + AZD7762; first compound 2.53 µM) | relative viability (Vismodegib + AZD7762; first compound 8 µM) | relative viability (Ruxolitinib + Foretinib; first compound 0.08 µM) | relative viability (Ruxolitinib + Foretinib; first compound 0.253 µM) | relative viability (Ruxolitinib + Foretinib; first compound 0.8 µM) | relative viability (Ruxolitinib + Foretinib; first compound 2.53 µM) | relative viability (Ruxolitinib + Foretinib; first compound 8 µM) | relative viability (Ruxolitinib + Dasatinib; first compound 0.08 µM) | relative viability (Ruxolitinib + Dasatinib; first compound 0.8 µM) | relative viability (Ruxolitinib + Dasatinib; first compound 2.53 µM) | relative viability (Ruxolitinib + Dasatinib; first compound 8 µM) | relative viability (Ruxolitinib + Dasatinib; first compound 0.253 µM)
1 | HCC-44 | 0.613 | 0.649 | 0.596 | 0.479 | 0.447 | 1.06 | 1.04 | 0.932 | 1.01 | 1.04 | – | – | – | – | – | – | – | – | – | –
2 | NCI-H1299 | – | – | – | – | – | – | – | – | – | – | 1.09 | 1.1 | 1.05 | 0.982 | 0.853 | – | – | – | – | –
3 | NCI-H520 | 0.75 | 0.657 | 0.582 | 0.361 | 0.223 | – | – | – | – | – | 0.703 | – | 0.853 | 0.753 | 0.885 | 0.239 | 0.183 | 0.159 | 0.163 | –
4 | COR-L 105 | 1.07 | 0.965 | 0.74 | 1.04 | 0.712 | – | – | – | – | – | 0.927 | 1.17 | 0.994 | 0.718 | 0.853 | 0.313 | 0.326 | 0.214 | 0.23 | 0.295
5 | SW 1573 | 0.774 | 0.816 | 0.748 | 0.784 | 0.576 | – | – | – | – | – | 0.979 | 0.916 | 1.1 | 0.834 | 0.885 | 0.742 | 0.72 | 0.357 | 0.237 | 0.459
6 | NCI-H1650 | 0.344 | 0.355 | 0.289 | 0.386 | 0.307 | – | – | – | – | – | – | 1.25 | 1.29 | 1.27 | 1.13 | – | 0.343 | 0.252 | 0.29 | 0.265
7 | NCI-H2023 | 0.24 | 0.202 | 0.17 | 0.123 | 0.0894 | – | – | – | – | – | 0.682 | 0.897 | 0.947 | 0.978 | 1.32 | 0.616 | 0.575 | 0.332 | 0.354 | 0.336
8 | SK-LU-1 | 0.971 | 0.943 | 0.917 | 0.672 | 0.4 | – | – | – | – | – | 0.813 | 0.806 | 0.876 | 0.75 | 0.676 | 0.206 | 0.166 | 0.135 | 0.164 | 0.166
9 | NCI-H727 | – | – | – | – | – | 0.594 | 0.691 | 0.677 | 0.448 | 0.661 | 1.21 | 0.976 | 1.3 | 0.873 | 1.03 | 0.396 | 0.456 | 0.469 | 0.451 | 0.303
10 | COR-L23 | 0.198 | 0.211 | 0.196 | 0.197 | 0.16 | – | – | – | – | – | 0.944 | 0.988 | 1.07 | 1 | 0.772 | 0.483 | 0.521 | 0.386 | 0.341 | 0.534
11 | NCI-H1703 | – | – | – | – | – | 0.139 | – | 0.134 | 0.104 | 0.152 | 0.298 | 0.338 | 0.376 | 0.329 | 0.287 | – | – | – | – | –
12 | NCI-H2009 | 1.03 | 1 | 1.02 | 0.851 | 0.732 | – | – | – | – | – | 1.21 | 1.27 | 1.23 | 1.15 | 0.876 | 0.354 | 0.273 | 0.129 | 0.176 | 0.263
13 | ABC-1 | – | – | – | – | – | 0.97 | 0.851 | 0.823 | 0.803 | 0.839 | – | 1.35 | 1.33 | 0.975 | 0.99 | – | 0.547 | 0.64 | 0.45 | 0.53
14 | NCI-H661 | 0.979 | 0.923 | 0.84 | 0.744 | 0.571 | – | – | – | – | – | 0.92 | 1.05 | 1.08 | 0.94 | 0.926 | 0.964 | 1.03 | 0.695 | 0.498 | 0.872
15 | NCI-H1648 | 0.977 | – | 0.569 | 0.63 | 0.611 | 0.811 | 0.717 | 0.833 | 0.693 | 0.696 | – | – | – | – | – | – | – | – | – | –
16 | A549 | – | – | – | – | – | – | – | – | – | – | 0.926 | 0.926 | 1.08 | 0.834 | 0.632 | – | – | – | – | –
17 | NCI-H1563 | 0.778 | 0.7 | 0.613 | 0.761 | 0.481 | – | – | – | – | – | 0.994 | 0.976 | 0.997 | 0.852 | 0.94 | 0.446 | 0.452 | 0.43 | 0.402 | 0.481
18 | NCI-H1623 | – | – | – | – | – | – | – | – | – | – | 0.908 | 0.94 | 0.971 | 1.01 | 0.994 | 0.591 | 0.488 | 0.699 | 0.474 | 0.512
19 | SK-MES-1 | 0.98 | 0.934 | 0.838 | 0.612 | 0.352 | – | – | – | – | – | 0.927 | 0.714 | 0.955 | 0.788 | 0.768 | 0.313 | 0.315 | 0.199 | 0.285 | 0.372
20 | NCI-H2228 | 0.333 | 0.373 | 0.301 | 0.253 | 0.156 | – | – | – | – | – | 0.86 | 0.911 | 0.794 | 0.717 | 0.429 | 0.399 | 0.484 | 0.401 | 0.198 | 0.457
21 | IA-LM | – | – | – | – | – | – | – | – | – | – | 1.04 | 1.19 | 1.34 | 1.22 | 0.885 | – | – | – | – | –
22 | NCI-H522 | 1.28 | 1 | 0.909 | 1.16 | 0.778 | 1.06 | 0.875 | 0.849 | 0.81 | 0.857 | – | – | – | – | – | 0.751 | 0.916 | 0.919 | 0.731 | 1.03
23 | EBC-1 | – | – | – | – | – | – | – | – | – | – | 0.0875 | 0.0905 | 0.116 | 0.115 | 0.0903 | – | – | – | – | –
24 | Calu-6 | – | – | – | – | – | – | – | – | – | – | 0.936 | 0.884 | 0.99 | 0.81 | 0.523 | – | – | – | – | –
